Measured values from US9181307B2, “Influenza A 2009 pandemic H1N1 polypeptide fragments comprising endonuclease activity and their use” (priority 2010, dated 2015).

tested on: endonucleolytically active site of the Influenza A 2009 pandemic H1N1 PA subunit polypeptide fragment or variant thereof; experiment: Co-crystallisation / X-ray structure: binding to the endonucleolytically active site; set-up: species or system Influenza A 2009 pandemic H1N1 virus

Structure (SMILES) | ability to bind to the endonucleolytically active site
O=C(O[C@@H]1Cc2c(O)cc(O)cc2O[C@@H]1c1cc(O)c(O)c(O)c1)c1cc(O)c(O)c(O)c1 [EGCG, [(2R,3R)-5,7-dihydroxy-2-(3,4,5-trihydroxyphenyl)chroman-3-yl]3,4,5-trihydroxybenzoate] | able to bind to the endonucleolytically active site
O=C(O)/C(O)=C/C(=O)C1(Cc2ccc(Cl)cc2)CCN(CC2CCCCC2)CC1 [EMBL-R05-2, 4-[4-[(4-chlorophenyl)methyl]-1-(cyclohexylmethyl)-4-piperidinyl]-2-hydroxy-4-oxo-2-butenoic acid] | able to bind to the endonucleolytically active site
O=C(O)/C(O)=C/C(=O)C1(Cc2ccc(Cl)cc2)CCCN(Cc2ccccc2)C1 (stereo not drawn) [EMBL-R05-3, 4-[3-[(4-chlorophenyl)methyl]-1-(phenylmethyl)-3-piperidinyl]-2-hydroxy-4-oxo-2-butenoic acid] | able to bind to the endonucleolytically active site
